Reference: patent US20180155344A1, “TRICYCLIC PIPERIDINE COMPOUNDS” (ACTELION PHARMACEUTICALS LTD, priority 2015, published 2018)

Biological target: T1, human TPH1 (Homo sapiens, UniProt P17752)
T1 sequence (P17752 1-444): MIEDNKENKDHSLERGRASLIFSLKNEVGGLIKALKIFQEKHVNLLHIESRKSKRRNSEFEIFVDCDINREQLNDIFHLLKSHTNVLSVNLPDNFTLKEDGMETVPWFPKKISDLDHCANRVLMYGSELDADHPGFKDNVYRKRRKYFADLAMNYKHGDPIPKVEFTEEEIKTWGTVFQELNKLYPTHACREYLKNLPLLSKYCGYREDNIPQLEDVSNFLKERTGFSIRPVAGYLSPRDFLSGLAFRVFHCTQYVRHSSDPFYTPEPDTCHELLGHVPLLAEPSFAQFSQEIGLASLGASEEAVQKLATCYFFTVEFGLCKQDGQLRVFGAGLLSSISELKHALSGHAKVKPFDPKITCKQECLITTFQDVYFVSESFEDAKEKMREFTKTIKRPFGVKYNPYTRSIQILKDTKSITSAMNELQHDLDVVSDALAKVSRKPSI
Assay: biochemical
Summary of the method: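 Inhibition is derived from 5-hydroxy-L-tryptophan fluorescence (540 nm emission, 300 nm excitation) after perchloric acid stop, relative to DMSO vehicle. Recombinant full-length human enzyme (40-80 nM) reacts with 40 μM tryptophan plus 100 μM methyltetrahydropterin, pH 7.6 Tris/DTT/catalase, 15° C, 60 min.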

| SMILES | IC50 [nM] |
| --- | --- |
| COc1ccc(C2c3c(nc4cc(C(F)(F)F)ccn34)CCN2C(=O)COc2ccc3ccncc3c2)cc1OC (stereo not shown) [Example 3.1.20, 1-(1-(3,4-dimethoxyphenyl)-7-(trifluoromethyl)-3,4-dihydroimidazo[1,2-a:5,4-c′]dipyridin-2(1H)-yl)-2-(isoquinolin-7-yloxy)ethan-1-one] | 19 |
| COc1ccc(C2c3c(nc4cc(C(F)(F)F)ccn34)CCN2C(=O)COc2ccc3c(c2)OCO3)cc1OC (stereo not shown) [Example 3.1.21] | 116 |
| COc1ccc(C2c3c(nc4cc(C(F)(F)F)ccn34)CCN2C(=O)COc2cnc3ccccc3c2)cc1OC (stereo not shown) [Example 3.1.22] | 165 |
| COc1ccc(C2c3c(nc4cc(C(F)(F)F)ccn34)CCN2C(=O)COc2nn(C)c(C(F)(F)F)c2Cl)cc1OC (stereo not shown) [Example 3.1.25, 2-((4-chloro-1-methyl-5-(trifluoromethyl)-1H-pyrazol-3-yl)oxy)-1-(1-(3,4-dimethoxyphenyl)-7-(trifluoromethyl)-3,4-dihydroimidazo[1,2-a:5,4-c′]dipyridin-2(1H)-yl)ethan-1-one] | 78 |
| COc1ccc(C2c3c(nc4cc(C(F)(F)F)ccn34)CCN2C(=O)COc2ccc(CN3CCOCC3)nc2Cl)cc1OC (stereo not shown) [Example 3.1.27, 2-((2-chloro-6-(morpholinomethyl)pyridin-3-yl)oxy)-1-(1-(3,4-dimethoxyphenyl)-7-(trifluoromethyl)-3,4-dihydroimidazo[1,2-a:5,4-c′]dipyridin-2(1H)-yl)ethan-1-one] | 84 |
| CCc1ccccc1OCC(=O)N1CCc2nc3cc(C(F)(F)F)ccn3c2C1c1ccc(OC)c(OC)c1 (stereo not shown) [Example 3.1.28] | 118 |
| CCc1cc(Cl)ccc1OCC(=O)N1CCc2nc3cc(C(F)(F)F)ccn3c2C1c1ccc(OC)c(OC)c1 (stereo not shown) [Example 3.1.29, 2-(4-chloro-2-ethylphenoxy)-1-(1-(3,4-dimethoxyphenyl)-7-(trifluoromethyl)-3,4-dihydroimidazo[1,2-a:5,4-c′]dipyridin-2(1H)-yl)ethan-1-one] | 64 |
| CCc1ncccc1OCC(=O)N1CCc2nc3cc(C(F)(F)F)ccn3c2C1c1ccc(OC)c(OC)c1 (stereo not shown) [Example 3.1.30, 1-(1-(3,4-dimethoxyphenyl)-7-(trifluoromethyl)-3,4-dihydroimidazo[1,2-a:5,4-c′]dipyridin-2(1H)-yl)-2-((2-ethylpyridin-3-yl)oxy)ethan-1-one] | 36 |

More lines, in order of falling IC50, values ahead:

| IC50 [nM] | SMILES |
| --- | --- |
| 382 | COc1ccc(C2c3c(nc4cc(C(F)(F)F)ccn34)CCN2C(=O)COc2cnc3c(c2)ncn3C)cc1OC (stereo not shown) [Example 3.1.23] |
| 157 | COc1ccc(C2c3c(nc4cc(C(F)(F)F)ccn34)CCN2C(=O)COc2cc(-c3ccccc3)nn2C)cc1OC (stereo not shown) [Example 3.1.24] |
| 43 | CCc1cc(Br)ccc1OCC(=O)N1CCc2nc3cc(C(F)(F)F)ccn3c2C1c1ccc(OC)c(OC)c1 (stereo not shown) [Example 3.1.31, 2-(4-bromo-2-ethylphenoxy)-1-(1-(3,4-dimethoxyphenyl)-7-(trifluoromethyl)-3,4-dihydroimidazo[1,2-a:5,4-c′]dipyridin-2(1H)-yl)ethan-1-one] |
| 21 | CCc1cc(N2CCN(C)CC2)ccc1OCC(=O)N1CCc2nc3cc(C(F)(F)F)ccn3c2C1c1ccc(OC)c(OC)c1 (stereo not shown) [Example 3.1.32, 1-(1-(3,4-dimethoxyphenyl)-7-(trifluoromethyl)-3,4-dihydroimidazo[1,2-a:5,4-c′]dipyridin-2(1H)-yl)-2-(2-ethyl-4-(4-methylpiperazin-1-yl)phenoxy)ethan-1-one] |
| 17 | COc1ccc(C2c3c(nc4cc(C(F)(F)F)ccn34)CCN2C(=O)COc2ccc(CN3CCOCC3)cc2Cl)cc1OC (stereo not shown) [Example 3.1.26, 2-(2-chloro-4-(morpholinomethyl)phenoxy)-1-(1-(3,4-dimethoxyphe-nyl)-7-(trifluoromethyl)-3,4-dihydroimidazo[1,2-a:5,4-c′]dipyridin-2(1H)-yl)ethan-1-one] |
